Common to all, as to assay: antimycotic in-vitro activity, serial dilution test
Holding throughout (assay type): cell-based

One experiment has as its system Trichophyton mentagr. To be noted: Sabouraud's milieu d'epreuve, 28°C to 37 C, 96 hours, inoculum 5 x 10^3 to 10^4 germs/ml, read-out: MHK-Werte in µg/ml Närmedium Trichophyton mentagr. The protocol: (§1) Die in-vitro-Prüfungen wurden im Reihenverdünnungstest mit Keiminokula von durchschnittlich 5 x 10^3 bis 10^4 Keimen/mi Substrat durchgeführt. Als Nährmedium dienten • a) für Dermatophyten und Schimmelpilze: Sabouraud's milieu d'epreuve • b) für Hefen: Fleischextrakt-Traubenzucker-Bouillon.
(§2) Die Bebrütungstemperatur betrug 28°C bis 37 C, die Bebrütungsdauer lag bei 24 bis 96 Stunden bei Hefen und 96 Stunden bei Dermatophyten und Schimmelpilzen.

In another experiment the test system is Aspergillus fumigatus. The following applies: Sabouraud's milieu d'epreuve, 28°C to 37 C, 96 hours, inoculum 5 x 10^3 to 10^4 germs/ml, read-out: MHK-Werte in µg/ml Närmedium Aspergillus fumigatus. The method, then: as §1, §2
In another experiment the test system is Torulopsis glabrata. To be noted: Nakaseomyces glabratus; Fleischextrakt-Traubenzucker-Bouillon; 28°C to 37 C; 24 to 96 hours; inoculum 5 x 10^3 to 10^4 germs/ml; read-out: MHK-Werte in µg/ml Närmedium Torulopsis glabrata. The protocol:
as §1, §2

For another experiment, the system named is Candida albicans. The following applies: Fleischextrakt-Traubenzucker-Bouillon, 28°C to 37 C, 24 to 96 hours, inoculum 5 x 10^3 to 10^4 germs/ml, read-out: MHK-Werte in µg/ml Närmedium Candida albicans. The method, then: as §1, §2
A further experiment deals with Microsporum canis. The following applies: Sabouraud's milieu d'epreuve, 28°C to 37 C, 96 hours, inoculum 5 x 10^3 to 10^4 germs/ml, read-out: MHK-Werte in µg/ml Närmedium Microsporum canis. The method, then: as §1, §2

This passage reports MIC results from patent publication EP0308783A2, “Antimycotic preparations” (BAYER AG, priority 1987, dated 1989).

Converted amounts (≈) assume the structure as drawn.

Consider `OC(Cn1cncn1)(c1ccc(Cl)cc1)C1(Oc2ccc(Cl)cc2Cl)CC1` (stereo not drawn) [(B), 1-(4-Chlorphenyl)-1-[1-(2,4-dichiorphenoxy)-cycloprop-1-yl]-2-(1,2,4-triazol-1-yl)-ethan-1-ol], for which the MIC with Trichophyton mentagr. was 64 µg/mL (≈ 151 µM); in the experiment with Aspergillus fumigatus, above 64 µg/mL; in the experiment with Torulopsis glabrata, 64 µg/mL (≈ 151 µM); with Candida albicans, 16 µg/mL (≈ 37.7 µM).

Consider `OC(Cn1cncn1)(c1ccc(Cl)cc1)C1(F)CC1` (stereo not drawn) [(A), 1-(4-Chlorphenyl)-1-(1-fluor-cycloprop-1-yl)-2-(1,2,4-triazol-1-yl)-ethan-1-ol], for which the MIC in the experiment on Trichophyton mentagr., with Aspergillus fumigatus and in the experiment on Candida albicans was above 64 µg/mL each time.

For the compound `OC(COc1ccc(Cl)cc1)(Cn1cncn1)C1(Cl)CC1` (stereo not drawn) [Beispiel 1, 2-(1-Chlorcyclopropyl)-1-(4-chlorphenoxy)-3-(1,2,4-triazol-1-yl)-propan-2-ol], the MIC was below 1 µg/mL in the experiment with Trichophyton mentagr.; below 1 µg/mL in the experiment on Microsporum canis; 2 µg/mL (≈ 6.09 µM) in the experiment with Aspergillus fumigatus; 16 µg/mL (≈ 48.8 µM) in the experiment with Torulopsis glabrata; 16 µg/mL (≈ 48.8 µM) in the experiment with Candida albicans.
